Reference: US20260022142A1, “MACROCYCLIC IMMUNOMODULATORS” (Bristol-Myers Squibb Company, priority 2022, published 2026)
Bridge positions count the residues as written; N and C are the ends. Square brackets hold non-standard residues; d marks the D form. Peptide text beside a SMILES is read from it. * marks the point of attachment. Ala(morpholin-4-yl) = N[C@@H](CN1CCOCC1)C(=O)O; Phe(4-COOH) = N[C@@H](Cc1ccc(C(=O)O)cc1)C(=O)O; Bip = N[C@@H](Cc1ccc(-c2ccccc2)cc1)C(=O)O; Phe(3-Me) = Cc1cccc(C[C@H](N)C(=O)O)c1; NH(CH2)12COOH = O=C(O)CCCCCCCCCCCCN*; Val(3-OH) = CC(C)(O)[C@H](N)C(=O)O; 4Pal = N[C@@H](Cc1ccncc1)C(=O)O; Cha = N[C@@H](CC1CCCCC1)C(=O)O; Carboxymethyl = O=C(O)C*; Nle = CCCC[C@H](N)C(=O)O; Orn = NCCC[C@H](N)C(=O)O; Dab = NCC[C@H](N)C(=O)O; AEEA = NCCOCCOCC(=O)O

Target: T1, PD-1/PD-L1 interaction (PE-labeled human PD-L1-Ig binding to Jurkat cell line over-expressing human PD-1) (Homo sapiens, UniProt Q15116)
T1 construct: expressed in transfected cells; host or cells: Jurkat
T1 sequence (Q15116 25-288): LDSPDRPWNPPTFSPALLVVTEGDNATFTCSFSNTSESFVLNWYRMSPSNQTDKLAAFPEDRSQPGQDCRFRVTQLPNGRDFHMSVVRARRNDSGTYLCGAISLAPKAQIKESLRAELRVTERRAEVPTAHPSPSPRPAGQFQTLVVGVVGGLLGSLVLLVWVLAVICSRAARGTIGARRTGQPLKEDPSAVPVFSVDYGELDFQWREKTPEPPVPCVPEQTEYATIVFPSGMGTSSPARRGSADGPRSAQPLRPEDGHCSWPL
Experiment: Jurkat-PD-1 Cell Binding High-Content Screening Assay (CBA)
Type: cell-based
Settings: Jurkat cell line over-expressing human PD-1; PE-labeled PD-L1-Ig 20 nM final; read-out: Jurkat hPD1-PDL1 IC50
In short: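 Jurkat-hPD-1 cells, DMEM/10% FCS; cpd 2 h 37° C; PE-PD-L1-Ig 20 nM final, 1 h; 4% PFA fix + Hoechst 33342, 3× dPBS wash; high-content imaging read-out.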

SMILES | IC50
Cc1cccc(C[C@@H]2NC(=O)[C@H](CC(=O)O)NC(=O)[C@H](Cc3ccc(OCC(=O)O)cc3)NC(=O)[C@H](CCN)NC(=O)CSC[C@@H](C(=O)N[C@@H](CCN)C(=O)NCCOCCOCC(=O)NCCOCCOCC(=O)NCCCCCCCCCCCCC(=O)O)NC(=O)[C@H](CCC(=O)O)NC(=O)[C@H](C(C)(C)O)NC(=O)[C@H](CC3CCCCC3)NC(=O)[C@H](Cc3c[nH]cn3)NC(=O)[C@@H](CC(C)C)NC(=O)[C@H](CCCN)NC(=O)[C@H](Cc3ccc(C(=O)O)cc3)NC(=O)[C@H](Cc3ccc(-c4ccccc4)cc3)NC(=O)[C@H](Cc3ccc(C(=O)O)cc3)NC2=O)c1 [Compound 2888] ({CH2CO}-[Dab]Y(Carboxymethyl)D[Phe(3-Me)][Phe(4-COOH)][Bip][Phe(4-COOH)][Orn][dL]H[Cha][Val(3-OH)]EC[Dab][AEEA][AEEA]-{NH(CH2)12COOH}; thioether N-14) | 0.0382 µM
Cc1cccc(C[C@@H]2NC(=O)[C@H](CC(=O)O)NC(=O)[C@H](Cc3ccc(OCC(=O)O)cc3)NC(=O)[C@H](CCN)NC(=O)CSC[C@@H](C(=O)N[C@@H](CCN)C(=O)NCCOCCOCC(=O)NCCOCCOCC(=O)NCCCCCCCCCCCCC(=O)O)NC(=O)[C@H](CC(=O)O)NC(=O)[C@H](C(C)(C)O)NC(=O)[C@H](CC3CCCCC3)NC(=O)[C@H](Cc3c[nH]cn3)NC(=O)[C@@H](CC(C)C)NC(=O)[C@H](CCCN)NC(=O)[C@H](Cc3ccc(C(=O)O)cc3)NC(=O)[C@H](Cc3ccc(-c4ccccc4)cc3)NC(=O)[C@H](Cc3ccc(C(=O)O)cc3)NC2=O)c1 [Compound 2889] ({CH2CO}-[Dab]Y(Carboxymethyl)D[Phe(3-Me)][Phe(4-COOH)][Bip][Phe(4-COOH)][Orn][dL]H[Cha][Val(3-OH)]DC[Dab][AEEA][AEEA]-{NH(CH2)12COOH}; thioether N-14) | 0.0524 µM
Cc1cccc(C[C@@H]2NC(=O)[C@H](CC(=O)O)NC(=O)[C@H](Cc3ccc(C(=O)O)cc3)NC(=O)[C@H](CCN)NC(=O)CSC[C@@H](C(=O)N[C@@H](CCN)C(=O)NCCOCCOCC(=O)NCCOCCOCC(=O)NCCCCCCCCCCCCC(=O)O)NC(=O)[C@H](CO)NC(=O)[C@H](C(C)(C)O)NC(=O)[C@H](CC3CCCCC3)NC(=O)[C@H](Cc3c[nH]cn3)NC(=O)[C@@H](CC(C)C)NC(=O)[C@H](CCCN)NC(=O)[C@H](Cc3ccc(C(=O)O)cc3)NC(=O)[C@H](Cc3ccc(-c4ccccc4)cc3)NC(=O)[C@H](Cc3ccc(C(=O)O)cc3)NC2=O)c1 [Compound 2890] ({CH2CO}-[Dab][Phe(4-COOH)]D[Phe(3-Me)][Phe(4-COOH)][Bip][Phe(4-COOH)][Orn][dL]H[Cha][Val(3-OH)]SC[Dab][AEEA][AEEA]-{NH(CH2)12COOH}; thioether N-14) | 0.0311 µM
CCCC[C@@H]1NC(=O)CSC[C@@H](C(=O)N[C@@H](CCN)C(=O)NCCOCCOCC(=O)NCCOCCOCC(=O)NCCCCCCCCCCCCC(=O)O)NC(=O)[C@H](CO)NC(=O)[C@H](C(C)(C)O)NC(=O)[C@H](CC2CCCCC2)NC(=O)[C@H](CCN)NC(=O)[C@@H](CC(C)C)NC(=O)[C@H](CCCN)NC(=O)[C@H](Cc2ccc(C(=O)O)cc2)NC(=O)[C@H](Cc2ccc(-c3ccccc3)cc2)NC(=O)[C@H](Cc2ccc(C(=O)O)cc2)NC(=O)[C@H](Cc2cccc(C)c2)NC(=O)[C@H](CC(=O)O)NC(=O)[C@H](Cc2ccc(OCC(=O)O)cc2)NC1=O [Compound 2891] ({CH2CO}-[Nle]Y(Carboxymethyl)D[Phe(3-Me)][Phe(4-COOH)][Bip][Phe(4-COOH)][Orn][dL][Dab][Cha][Val(3-OH)]SC[Dab][AEEA][AEEA]-{NH(CH2)12COOH}; thioether N-14) | 0.0026 µM
CCCC[C@@H]1NC(=O)CSC[C@@H](C(=O)N[C@@H](CCN)C(=O)NCCOCCOCC(=O)NCCOCCOCC(=O)NCCCCCCCCCCCCC(=O)O)NC(=O)[C@H](CCC(=O)O)NC(=O)[C@H](C(C)(C)O)NC(=O)[C@H](CC2CCCCC2)NC(=O)[C@H](CCN)NC(=O)[C@@H](CC(C)C)NC(=O)[C@H](CCCN)NC(=O)[C@H](Cc2ccc(C(=O)O)cc2)NC(=O)[C@H](Cc2ccc(-c3ccccc3)cc2)NC(=O)[C@H](Cc2ccc(C(=O)O)cc2)NC(=O)[C@H](Cc2cccc(C)c2)NC(=O)[C@H](CC(=O)O)NC(=O)[C@H](Cc2ccc(OCC(=O)O)cc2)NC1=O [Compound 2892] ({CH2CO}-[Nle]Y(Carboxymethyl)D[Phe(3-Me)][Phe(4-COOH)][Bip][Phe(4-COOH)][Orn][dL][Dab][Cha][Val(3-OH)]EC[Dab][AEEA][AEEA]-{NH(CH2)12COOH}; thioether N-14) | 0.0262 µM
CCCC[C@@H]1NC(=O)CSC[C@@H](C(=O)N[C@@H](CCN)C(=O)NCCOCCOCC(=O)NCCOCCOCC(=O)NCCCCCCCCCCCCC(=O)O)NC(=O)[C@H](CC(=O)O)NC(=O)[C@H](C(C)(C)O)NC(=O)[C@H](CC2CCCCC2)NC(=O)[C@H](CCN)NC(=O)[C@@H](CC(C)C)NC(=O)[C@H](CCCN)NC(=O)[C@H](Cc2ccc(C(=O)O)cc2)NC(=O)[C@H](Cc2ccc(-c3ccccc3)cc2)NC(=O)[C@H](Cc2ccc(C(=O)O)cc2)NC(=O)[C@H](Cc2cccc(C)c2)NC(=O)[C@H](CC(=O)O)NC(=O)[C@H](Cc2ccc(OCC(=O)O)cc2)NC1=O [Compound 2893] ({CH2CO}-[Nle]Y(Carboxymethyl)D[Phe(3-Me)][Phe(4-COOH)][Bip][Phe(4-COOH)][Orn][dL][Dab][Cha][Val(3-OH)]DC[Dab][AEEA][AEEA]-{NH(CH2)12COOH}; thioether N-14) | 0.0195 µM
COc1ccc(C[C@@H]2NC(=O)[C@H](Cc3cccc(C)c3)NC(=O)[C@H](CC(=O)O)NC(=O)[C@H](Cc3ccc(OCC(=O)O)cc3)NC(=O)[C@H](Cc3ccncc3)NC(=O)CSC[C@@H](C(=O)N[C@@H](CCN)C(=O)NCCOCCOCC(=O)NCCOCCOCC(=O)NCCCCCCCCCCCCC(=O)O)NC(=O)[C@H](CO)NC(=O)[C@H](C(C)(C)O)NC(=O)[C@H](CC3CCCCC3)NC(=O)[C@H](CCN)NC(=O)[C@@H](CC(C)C)NC(=O)[C@H](CCCN)NC(=O)[C@H](Cc3ccc(OCC(=O)O)cc3)NC(=O)[C@H](Cc3ccc(-c4ccccc4)cc3)NC2=O)cc1 [Compound 2894] ({CH2CO}-[4Pal]Y(Carboxymethyl)D[Phe(3-Me)]Y(Me)[Bip]Y(Carboxymethyl)[Orn][dL][Dab][Cha][Val(3-OH)]SC[Dab][AEEA][AEEA]-{NH(CH2)12COOH}; thioether N-14) | 0.259 µM
Cc1cccc(C[C@@H]2NC(=O)[C@H](CC(=O)O)NC(=O)[C@H](Cc3ccc(OCC(=O)O)cc3)NC(=O)[C@H](Cc3c[nH]cn3)NC(=O)CSC[C@@H](C(=O)N[C@@H](CCN)C(=O)NCCOCCOCC(=O)NCCOCCOCC(=O)NCCCCCCCCCCCCC(=O)O)NC(=O)[C@H](CO)NC(=O)[C@H](C(C)(C)O)NC(=O)[C@H](CC3CCCCC3)NC(=O)[C@H](CCN)NC(=O)[C@@H](CC(C)C)NC(=O)[C@H](CCCN)NC(=O)[C@H](Cc3ccc(C(=O)O)cc3)NC(=O)[C@H](Cc3ccc(-c4ccccc4)cc3)NC(=O)[C@H](Cc3ccc(C(=O)O)cc3)NC2=O)c1 [Compound 2895] ({CH2CO}-HY(Carboxymethyl)D[Phe(3-Me)][Phe(4-COOH)][Bip][Phe(4-COOH)][Orn][dL][Dab][Cha][Val(3-OH)]SC[Dab][AEEA][AEEA]-{NH(CH2)12COOH}; thioether N-14) | 0.0114 µM
Cc1cccc(C[C@@H]2NC(=O)[C@H](CC(=O)O)NC(=O)[C@H](Cc3ccc(OCC(=O)O)cc3)NC(=O)[C@H](CN3CCOCC3)NC(=O)CSC[C@@H](C(=O)N[C@@H](CCN)C(=O)NCCOCCOCC(=O)NCCOCCOCC(=O)NCCCCCCCCCCCCC(=O)O)NC(=O)[C@H](CO)NC(=O)[C@H](C(C)(C)O)NC(=O)[C@H](CC3CCCCC3)NC(=O)[C@H](CCN)NC(=O)[C@@H](CC(C)C)NC(=O)[C@H](CCCN)NC(=O)[C@H](Cc3ccc(OCC(=O)O)cc3)NC(=O)[C@H](Cc3ccc(-c4ccccc4)cc3)NC(=O)[C@H](Cc3ccc(OCC(=O)O)cc3)NC2=O)c1 [Compound 2896] ({CH2CO}-[Ala(morpholin-4-yl)]Y(Carboxymethyl)D[Phe(3-Me)]Y(Carboxymethyl)[Bip]Y(Carboxymethyl)[Orn][dL][Dab][Cha][Val(3-OH)]SC[Dab][AEEA][AEEA]-{NH(CH2)12COOH}; thioether N-14) | 0.0041 µM
Cc1cccc(C[C@@H]2NC(=O)[C@H](CC(=O)O)NC(=O)[C@H](Cc3ccc(OCC(=O)O)cc3)NC(=O)[C@H](CN3CCOCC3)NC(=O)CSC[C@@H](C(=O)N[C@@H](CCN)C(=O)NCCOCCOCC(=O)NCCOCCOCC(=O)NCCCCCCCCCCCCC(=O)O)NC(=O)[C@H](CO)NC(=O)[C@H](C(C)(C)O)NC(=O)[C@H](CC3CCCCC3)NC(=O)[C@H](CCN)NC(=O)[C@@H](CC(C)C)NC(=O)[C@H](CCCN)NC(=O)[C@H](Cc3ccc(C(=O)O)cc3)NC(=O)[C@H](Cc3ccc(-c4ccccc4)cc3)NC(=O)[C@H](Cc3ccc(C(=O)O)cc3)NC2=O)c1 [Compound 2897] ({CH2CO}-[Ala(morpholin-4-yl)]Y(Carboxymethyl)D[Phe(3-Me)][Phe(4-COOH)][Bip][Phe(4-COOH)][Orn][dL][Dab][Cha][Val(3-OH)]SC[Dab][AEEA][AEEA]-{NH(CH2)12COOH}; thioether N-14) | 0.0016 µM
Cc1cccc(C[C@@H]2NC(=O)[C@H](CC(=O)O)NC(=O)[C@H](Cc3ccc(OCC(=O)O)cc3)NC(=O)[C@H](CN3CCOCC3)NC(=O)CSC[C@@H](C(=O)N[C@@H](CCN)C(=O)NCCOCCOCC(=O)NCCOCCOCC(=O)NCCCCCCCCCCCCC(=O)O)NC(=O)[C@H](CCC(=O)O)NC(=O)[C@H](C(C)(C)O)NC(=O)[C@H](CC3CCCCC3)NC(=O)[C@H](CCN)NC(=O)[C@@H](CC(C)C)NC(=O)[C@H](CCCN)NC(=O)[C@H](Cc3ccc(C(=O)O)cc3)NC(=O)[C@H](Cc3ccc(-c4ccccc4)cc3)NC(=O)[C@H](Cc3ccc(C(=O)O)cc3)NC2=O)c1 [Compound 2898] ({CH2CO}-[Ala(morpholin-4-yl)]Y(Carboxymethyl)D[Phe(3-Me)][Phe(4-COOH)][Bip][Phe(4-COOH)][Orn][dL][Dab][Cha][Val(3-OH)]EC[Dab][AEEA][AEEA]-{NH(CH2)12COOH}; thioether N-14) | 0.0055 µM
